From patent US10064909B2, “Compositions and methods for chronic use of a weight-gaining compound” (priority 2015, dated 2018)

Legend:
Type in all cases: in vivo
[1] = Safety of daily capromorelin in cats for 91 days at an oral dose of 6 mg/kg
Experimental: (§1) This controlled study included two treatment groups with 4 adult cats receiving placebo (Group 1) and 8 adult cats receiving capromorelin (Formulation #9, as described above) (Group 2) for 91 consecutive days. All cats were offered food daily for a 6-hour period following an 11-day acclimation phase. All cats were weighed on Days −11, −1, 1, 14, 30, 59, 75, and 91. On Days 1 through 91, animals were orally administered capromorelin once daily via syringe at dose levels of 0 or 6 mg/kg. At one hour post-dose, all cats were offered food for a 6-hour period. Variables of interest included weight gain/loss, food consumption, clinical pathology, and serum analysis of IGF-1 and GH.
(§2) On Days 1, 30, 59, and 91, blood samples were collected prior to daily dose administration and at 8 hours post-dose and processed to serum for analysis of IGF-1 and GH levels. Hematology parameters included white blood count (WBC), hemoglobin (HgB), red blood count (RBC), platelet count (PLT), platelet morphology, hematocrit (HCT), mean corpuscular volume (MCV), mean corpuscular hemoglobin (MCH), WBC differential, RBC and WBC morphology, mean corpuscular hemoglobin concentration (MCHC), reticulocytes, and blood smear. Serum chemistry parameters measured included albumin (ALB), creatine kinase (CK), albumin/globulin ratio (A\G), globulin (GLOB), alkaline phosphatase (ALP), glucose (GLU), fructosamine, alanine aminotransferase (ALT), blood urea nitrogen (BUN), phosphorus (PHOS), calcium (Ca), potassium (K), chloride (Cl), sodium (Na), cholesterol (CHOL), total protein (TP), creatinine (CRE), total bilirubin (TBIL), BUN/creatinine ratio, and sodium/potassium ratio.
Urine samples were collected via cystocentesis and/or by collection in pans/trays from all cats for urinalysis. Before blood collection, all animals were fasted at least 8 hours. Urinalysis parameters measured included specific gravity (SG), pH (PH), color (COL), clarity (CLAR), blood (BLO), protein (UPRO), bilirubin (UBIL), glucose (UGLU), ketones (KET), and the microscopic examination of the sediments for RBC/hpf, WBC/hpf, bacteria (BACT), epithelial cells, mucus, casts, and crystals.

GH = assay: 91-day cat safety study: serum GH; settings: cats, 6 mg/kg, compared to placebo controls; attenuated through Days 30, 59, 91
Experimental: as §1
as §2, with “Hematology parameters included white blood count (WBC), hemoglobin (HgB), red blood count (RBC), platelet count (PLT), platelet morphology, hematocrit (HCT), mean corpuscular volume (MCV), mean corpuscular hemoglobin (MCH), WBC differential, RBC and WBC morphology, mean corpuscular hemoglobin concentration (MCHC), reticulocytes, and blood smear.” left out

[2] = Safety and effectiveness of daily capromorelin in cats with CKD for 90 days (field study, Example 9)
Experimental: This study was to confirm the safety and effectiveness of AT-002 (capromorelin) in cats under field conditions using a dose of 2 mg/kg administered once daily for 90 days. The study tested the hypotheses that AT-002 will maintain or increase bodyweight, improve body condition score (BCS), improve muscle condition score (MCS), improve appetite and/or improve quality of life (QoL) in cats. This was a double-masked, randomized, placebo-controlled, multi-site, proof of concept field study.
This study enrolled cats diagnosed with chronic kidney disease (CKD) and a minimum 6-month history of losing weight. The enrollment target was for a minimum of 15 evaluable cases in the AT-002 group and 15 evaluable cases in the Control Product (CP; placebo) group. The Investigator and all study personnel were masked to treatment code (A or B) and treatment group (AT-002 or CP). The Dispenser and Owner remained blinded to treatment group (AT-002 or CP).
Cats were treated with a dosage of 2 mg/kg body weight of AT-002 (AT-002) or a placebo (CP) formulation at the same dose volume as the AT-002 once daily for 90±3 days. Day 0 was the first day of dosing. Cats were evaluated on Day 0, Day 14±1, Day 30±2, Day 60±3 and Day 90±3. The primary effectiveness variable was change in bodyweight from Day 0 through Day 90±3. Secondary effectiveness variables included BCS, MCS, owner appetite assessments and owner QoL assessments.
After enrollment, each case was randomly assigned to AT-002 or CP in a 1:1 ratio. The enrollment target was at least 30 evaluable cases (15 AT-002 and 15 CP) per the study randomization schedule across all sites.
Cats included in the study were spayed/neutered cats of any age and breed with a documented historical decrease in bodyweight over the previous 6 months, and a diagnosis of chronic kidney disease (IRIS stages II, III or IV). Cats on medications for certain stable, chronic conditions were allowed. Excluded from the study were cats in crisis or moribund, cats with documented and uncontrolled hyperthyroidism or inflammatory bowel disease, cats in which food intake is contraindicated (i.e. suspected foreign body, gastrointestinal surgery), cats with dental disease severe enough to impair food intake, cats with diabetes, and cats currently receiving prohibited medications.
The Owner maintained the feeding regime the cat was on at study enrollment. No special foods and no special feeding schedule were required. Water was available ad libitum. The cat's diet was monitored and a “Diet History” completed when the Investigator interviewed the Owner at screening/qualification (Day 0), Day 30±2, Day 60±3 and Day 90±3 or at the last study visit (i.e. early removal).
Bodyweight was measured in pounds to the nearest tenth decimal place as part of the physical examination at screening/qualification/Day 0, Day 14±1, Day 30±2, Day 60±3 and Day 90±3 and at the time of any unscheduled visit or early removal from the study. […]

IGF-1 = assay: Dose titration laboratory study (10 days): serum IGF-1; settings: cats
Experimental: This study defined a capromorelin oral solution dose regime that provides increased food intake and weight gain and the accompanying desired profile of IGF-1 serum levels. Laboratory adult cats were housed individually and divided into five groups (3/sex/group; n=6/group). Cats were dosed once daily for 10 consecutive days with either placebo, 1 mg/kg AT-002, 2 mg/kg AT-002, 3 mg/kg AT-002 or 4 mg/kg AT-002. The test article was a flavored solution formulation very similar to the final formulation. Study activities are summarized at Table 5.

CN1N=C2CCN(C(=O)[C@@H](COCc3ccccc3)NC(=O)C(C)(C)N)C[C@@]2(Cc2ccccc2)C1=O.O=C(O)C(O)C(O)C(=O)O [capromorelin, N-[(2R)-1-[(3aR)-2-methyl-3-oxo-3a-(phenylmethyl)-6,7-dihydro-4H-pyrazolo[4,3-c]pyridin-5-yl]-1-oxo-3-(phenylmethoxy)propan-2-yl]-2-amino-2-methylpropanamide L-tartrate]
resolution of post-dose clinical observations ([1]; 6 mg/kg): usually resolved within five minutes
mean rate of bodyweight change ([1]; 6 mg/kg oral once daily, 91 days): 0.0086
mean bodyweight change from baseline (Day 1) ([1]; 6 mg/kg oral once daily, Day 14): 0.26 kg
mean bodyweight change from baseline (Day 1) ([1]; 6 mg/kg oral once daily, Day 30): 0.46 kg
mean bodyweight change from baseline (Day 1) ([1]; 6 mg/kg oral once daily, Day 59): 0.64 kg
mean bodyweight change from baseline (Day 1) ([1]; 6 mg/kg oral once daily, Day 75): 0.73 kg
mean bodyweight change from baseline (Day 1) ([1]; 6 mg/kg oral once daily, Day 91): 0.80 kg
food consumption, mean change from baseline ([1]; 6 mg/kg oral once daily, baseline average of Days -3 through -1): 14.95 grams
mean rate of bodyweight change, factor vs placebo ([1]; 6 mg/kg, 0.0086 vs 0.0010 for placebo): 8.6
chronic hyperglycemia ([1]; 6 mg/kg, 91 days): no chronic hyperglycemia
food consumption, mean rate of change ([1]; 6 mg/kg, a rate of one = one more gram of food consumed each day): 1.2396
creatinine levels ([1]; 6 mg/kg, acclimation to Day 91, reference range 0.6 to 2.4 mg/dL): within the normal reference range
BUN levels ([1]; 6 mg/kg, acclimation to Day 91, reference range 14 to 36 mg/dL): within the normal reference range
serum glucose levels ([1]; 6 mg/kg, compared to the placebo group): increased
serum fructosamine ([1]; 6 mg/kg, reference range 191 to 349 μmol/L): No fructosamine values exceeded the normal reference range
most common clinical observations ([1]; 6 mg/kg, seen immediately post-dose): hypersalivation (ptyalism), lip smacking, emesis, and head shaking
GH following treatment (GH): increased
adverse events with evidence for a potential relationship to treatment ([2]; 2 mg/kg once daily, 90 days): increased salivation and potentially vomiting
tolerability ([2]; 2 mg/kg once daily, 90 days): well-tolerated
body condition score, muscle condition score, owner appetite assessment and quality of life parameters ([2]; 2 mg/kg once daily, vs placebo): no meaningful statistical differences
bodyweight during the treatment period ([2]; 2 mg/kg oral once daily, 90 days): gained weight
mean descriptive (monthly) quality of life score ([2]; 2 mg/kg, Day 0 to Day 90): remained the same
time of initial IGF-1 response (increase) (IGF-1; following treatment, Days 1 and 10): about 4 hours
duration of elevated IGF-1 levels post-dose (IGF-1; once-a-day dosing): 24 h
time to maximum relatively steady IGF-1 level (IGF-1; post-dose, Days 1 and 10): ≤ 8 h
